Source: patent publication US20200129499A1, “COMBINATION OF TASQUINIMOD OR A PHARMACEUTICALLY ACCEPTABLE SALT THEREOF AND A PD-1 AND/OR PD-L1 INHIBITOR, FOR USE AS A MEDICAMENT” (ACTIVE BIOTECH AB, priority 2015, published 2020)
“Also recorded” adds a separate entry of the source.

Tests used:
MBT-2 tumors [1] = test: Subcutaneous MBT-2 tumor growth in mice, initial combination study (Example 1); format: in vivo, mouse
Procedure: Six to seven-week old C3H/HeN male mice were purchased from JANVIER Labs. MBT-2, a mouse bladder cancer cell line (M. S. Soloway., Intravesical and systemic chemotherapy in the management of superficial bladder cancer, Urol. Clin. North Am. 11 (4):623-635, 1984), was provided from JCRB Cell Bank and was cultured in Eagle's minimal essential medium (Life Technologies) supplemented with 10% fetal bovine serum.
1×10^6 cells were injected subcutaneously into the flanks of mice and were allowed to grow until tumors reached a volume between 40 and 130 mm^3 (around day 10-1 1 post tumor cell inoculation).
Tumor volumes in mm^3 were assessed by caliper measurements and were calculated by the formula=(Width)^2×Length 12.
As mentioned in Table 2, the mice were treated with tasquinimod (30 mg/kg) p.o. (per os, i.e. oral administration) twice a day. For the blockade of PD-L1, 200 μg of the […] (clone 10F.9G2; Bio-XCell) was administered i.p. (intraperitoneally) to mice every 3 days. All studies were approved by the Bioethics committee of IPSEN (CE2A) and by the French Ministry of Agriculture and Fisheries' veterinary services.

MBT-2 tumors [2] = test: Subcutaneous MBT-2 tumor model, early or established tumors (Examples 3 and 4); format: in vivo, mouse
Procedure: FIG. 4: Treatment with tasquinimod had no effect on established MBT-2 tumor growth and induced an alteration in the profile of PD-1/PD-L1 axis. (A) Growth curves and (B) tumor weight of MBT-2 tumors treated with tasquinimod at 30 mg/kg (oral gavage, twice daily) after randomization at day 11 post tumor-cell inoculation (n=12). Mice were sacrificed. Tumors were harvested, digested and then subjected to surface staining. (C) PD-L1 expression on myeloid cells treated with vehicle (control) or tasquinimod 30 mg/kg at day 15. (D) Quantitative data of the Median Fluorescence Intensity of PD-L1 gated on infiltrating myeloid cells CD1 1b+ (*, P<0.05; Mann-Whitney test, n=5 mice per group).
FIG. 5: 106 MBT-2 cells were injected subcutaneously in C3H/HeNRj mice. Animals were treated with Anti-PD-L1 or its isotype (IgG2B) at the dose of 200 μg by intraperitoneal injection. Treatment started at (A) day 1 (Student test; left panel: *, P=0.0223), or (B) day 11 post tumor cell inoculation. […]
MBT-2 cells (1×106) were injected subcutaneously into the flanks of mice and resulting tumors were allowed to grow for 21 days. Tumors were measured by caliper and tumor volume (mm3) was calculated using the formula=(Width) 2×Length 12. […]

COc1cccc2c1c(O)c(C(=O)N(C)c1ccc(C(F)(F)F)cc1)c(=O)n2C [tasquinimod, 4-hydroxy-5-methoxy-N,1-dimethyl-2-oxo-N-[4-(trifluoromethyl)phenyl]-1,2-dihydroquinoline-3-carboxamide]
Average of tumor volumes (MBT-2 tumors [1]; day 0 post tumor cell inoculation (before treatment)): 0 mm^3
Average of tumor volumes (MBT-2 tumors [1]; day 10 post tumor cell inoculation): 49 mm^3
Average of tumor volumes (MBT-2 tumors [1]; day 11 post tumor cell inoculation): 61 mm^3
Average of tumor volumes (MBT-2 tumors [1]; day 13 post tumor cell inoculation): 180 mm^3
Average of tumor volumes (MBT-2 tumors [1]; day 14 post tumor cell inoculation): 225 mm^3
Average of tumor volumes (MBT-2 tumors [1]; day 15 post tumor cell inoculation): 309 mm^3
Average of tumor volumes (MBT-2 tumors [1]; day 17 post tumor cell inoculation): 390 mm^3
impact on tumor growth of MBT-2 tumors (MBT-2 tumors [1]; tasquinimod 30 mg/kg p.o. twice a day, antibody 200 μg i.p. every 3 days, from day 10-11): slight non-significant impact
tumor growth (tumor volume, mean±SEM) (MBT-2 tumors [2]; established tumors, treatment from day 8, FIG. 6B): 343±67 mm3
tumor growth of established MBT-2 tumors (MBT-2 tumors [2]; treatment started at tumor volume 50-100 mm3, tasquinimod 30 mg/kg twice daily, Anti-PD-L1 200 μg i.p.): no effect; also recorded: lost its ability to inhibit tumor growth
